Results reported in ChEMBL document CHEMBL4118281, “Azoalkyl ether imidazo[2,1-b]benzothiazoles as potentially antimicrobial agents with novel structural skeleton” (2018).
In brackets after ≈: the same amount, converted by molar mass. Activity calls are given as the source filed them. No cut-off for these calls is given here.

What was measured:
Staphylococcus aureus [1] = assay: Antibacterial activity against methicillin-resistant Staphylococcus aureus N315 after 3 passages; format: functional
Staphylococcus aureus [2] = assay: Antibacterial activity against methicillin-resistant Staphylococcus aureus N315 after 2 passages; format: functional
Bacillus subtilis = assay: Antibacterial activity against Bacillus subtilis after 24 hrs by micro broth dilution method; format: functional
Bacillus = assay: Antibacterial activity against Bacillus proteus ATCC 13315 after 24 hrs by micro broth dilution method; format: functional; conditions: ATCC 13315, 24 h
Staphylococcus aureus [3] = assay: Antibacterial activity against methicillin-resistant Staphylococcus aureus N315 after 5 passages; format: functional
Escherichia coli [4] = assay: Antibacterial activity against Escherichia coli JM109 after 24 hrs by micro broth dilution method; format: functional; conditions: JM109, 24 h
Staphylococcus aureus [5] = assay: Bactericidal activity against methicillin-resistant Staphylococcus aureus N315 assessed as reduction in bacterial load at 4 times MIC after 220 mins by time kill assay (reference value: 10.39 log10CFU/ml); format: functional
Candida albicans = assay: Antifungal activity against Candida albicans after 24 hrs by two fold serial dilution based spectrophotometric analysis; format: functional
Cyberlindnera jadinii = assay: Antifungal activity against Candida utilis after 24 hrs by two fold serial dilution based spectrophotometric analysis; format: functional; conditions: Williopsis jadinii
Staphylococcus aureus [6] = assay: Bactericidal activity against methicillin-resistant Staphylococcus aureus N315 assessed as reduction in bacterial load at 4 times MIC after 180 mins by time kill assay (reference value: 8.63 log10CFU/ml); format: functional
Staphylococcus aureus [7] = assay: Bactericidal activity against methicillin-resistant Staphylococcus aureus N315 assessed as reduction in bacterial load at 4 times MIC after 160 mins by time kill assay (reference value: 7.47 log10CFU/ml); format: functional
Saccharomyces cerevisiae = assay: Antifungal activity against Beer yeast after 24 hrs by two fold serial dilution based spectrophotometric analysis; format: functional
Staphylococcus aureus [8] = assay: Potency index, ratio of norfloxacin MIC to compound MIC for methicillin-resistant Staphylococcus aureus N315; format: functional
Staphylococcus aureus [9] = assay: Antibacterial activity against methicillin-resistant Staphylococcus aureus N315 after 7 passages; format: functional
Shigella dysenteriae = assay: Antibacterial activity against Shigella dysenteriae after 24 hrs by micro broth dilution method; format: functional
Staphylococcus aureus [10] = assay: Bactericidal activity against methicillin-resistant Staphylococcus aureus N315 assessed as reduction in bacterial load at 4 times MIC after 240 mins by time kill assay (reference value: 10.42 log10CFU/ml); format: functional
Staphylococcus aureus [11] = assay: Potency index, ratio of chloromycin MIC to compound MIC for methicillin-resistant Staphylococcus aureus N315; format: functional
Staphylococcus aureus [12] = assay: Antibacterial activity against methicillin-resistant Staphylococcus aureus N315 after 24 hrs by micro broth dilution method; format: functional; conditions: N315, 24 h
Staphylococcus aureus [13] = assay: Bactericidal activity against methicillin-resistant Staphylococcus aureus N315 assessed as reduction in bacterial load at 4 times MIC after 270 mins by time kill assay (reference value: 10.26 log10CFU/ml); format: functional
Staphylococcus aureus [14] = assay: Bactericidal activity against methicillin-resistant Staphylococcus aureus N315 assessed as reduction in bacterial load at 4 times MIC after 200 mins by time kill assay (reference value: 9.84 log10CFU/ml); format: functional
Escherichia coli [15] = assay: Antibacterial activity against Escherichia coli DH52 after 24 hrs by micro broth dilution method; format: functional; conditions: DH52, 24 h
Calf thymus DNA [16] = assay: Binding affinity to calf thymus DNA assessed as DNA intercalation by UV-Visible spectroscopic method; format: nucleic-acid assay; conditions: Bos taurus
Staphylococcus aureus [17] = assay: Antibacterial activity against methicillin-resistant Staphylococcus aureus N315 after 4 passages; format: functional
Staphylococcus aureus [18] = assay: Antibacterial activity against methicillin-resistant Staphylococcus aureus N315 after 8 passages; format: functional
Salmonella typhi = assay: Antibacterial activity against Bacillus typhi after 24 hrs by micro broth dilution method; format: functional, Salmonella enterica subsp. enterica serovar Typhi; conditions: Salmonella enterica
Calf thymus DNA [19] = assay: Inhibition of neutral red binding to calf thymus DNA by UV-Visible spectroscopic method; format: nucleic-acid assay; conditions: Bos taurus
Calf thymus DNA [20] = assay: Binding affinity to calf thymus DNA assessed as hypochromic shift by UV-Visible spectroscopic method; format: nucleic-acid assay; conditions: Bos taurus
Staphylococcus aureus [21] = assay: Antibacterial activity against methicillin-resistant Staphylococcus aureus N315 after 16 passages; format: functional, organism-based
Staphylococcus aureus [22] = assay: Bactericidal activity against methicillin-resistant Staphylococcus aureus N315 assessed as reduction in bacterial load at 4 times MIC after 140 mins by time kill assay (reference value: 6.413 log10CFU/ml); format: functional
Micrococcus luteus = assay: Antibacterial activity against Micrococcus luteus ATCC 4698 after 24 hrs by micro broth dilution method; format: functional; conditions: NCTC 2665, 24 h
Staphylococcus aureus [23] = assay: Antibacterial activity against Staphylococcus aureus ATCC 25923 after 24 hrs by micro broth dilution method; format: functional; conditions: ATCC 25923, 24 h
Pichia norvegensis = assay: Antifungal activity against Candida mycoderma after 24 hrs by two fold serial dilution based spectrophotometric analysis; format: functional
Staphylococcus aureus [24] = assay: Antibacterial activity against methicillin-resistant Staphylococcus aureus N315 after 6 passages; format: functional
Staphylococcus aureus [25] = assay: Bactericidal activity against methicillin-resistant Staphylococcus aureus N315 assessed as reduction in bacterial load at 4 times MIC after 120 mins by time kill assay (reference value: 5.77 log10CFU/ml); format: functional
Calf thymus DNA [26] = assay: Binding affinity to calf thymus DNA assessed as hypsochromic shift by UV-Visible spectroscopic method; format: nucleic-acid assay; conditions: Bos taurus
Aspergillus flavus = assay: Antifungal activity against Aspergillus flavus after 24 hrs by two fold serial dilution based spectrophotometric analysis; format: functional
Staphylococcus aureus [27] = assay: Bactericidal activity against methicillin-resistant Staphylococcus aureus N315 assessed as reduction in bacterial load at 4 times MIC up to 1 hr by time kill assay; format: functional
Pseudomonas aeruginosa = assay: Antibacterial activity against Pseudomonas aeruginosa after 24 hrs by micro broth dilution method; format: functional
Staphylococcus aureus [28] = assay: Antibacterial activity against methicillin-resistant Staphylococcus aureus N315 after 1 passage; format: functional

| Structure (SMILES) | MIC (Staphylococcus aureus [1]) | MIC (Staphylococcus aureus [2]) | MIC (Bacillus subtilis) | MIC (Bacillus) | MIC (Staphylococcus aureus [3]) | MIC (Escherichia coli [4]) | MIC (Candida albicans) | MIC (Cyberlindnera jadinii) | MIC (Saccharomyces cerevisiae) | MIC (Staphylococcus aureus [9]) | MIC (Shigella dysenteriae) | MIC (Staphylococcus aureus [12]) | MIC (Escherichia coli [15]) | MIC (Staphylococcus aureus [17]) | MIC (Salmonella typhi) | MIC (Micrococcus luteus) | MIC (Staphylococcus aureus [23]) | MIC (Pichia norvegensis) | MIC (Aspergillus flavus) | MIC (Pseudomonas aeruginosa) | further results |
| --- | --- | --- | --- | --- | --- | --- | --- | --- | --- | --- | --- | --- | --- | --- | --- | --- | --- | --- | --- | --- | --- |
| Cc1ncc([N+](=O)[O-])n1CCCOCc1c(-c2ccccc2)nc2sc3ccccc3n12 | 14 µM (≈ 6.27 µg/mL) | 13 µM (≈ 5.82 µg/mL) | 4 µg/mL (≈ 8.94 µM) | 8 µg/mL (≈ 17.9 µM) | 15 µM (≈ 6.71 µg/mL) | 4 µg/mL (≈ 8.94 µM) | 2 µg/mL (≈ 4.47 µM) | 32 µg/mL (≈ 71.5 µM) | 256 µg/mL (≈ 572 µM) | 15 µM (≈ 6.71 µg/mL) | 4 µg/mL (≈ 8.94 µM) | 2 µg/mL (≈ 4.47 µM) | 4 µg/mL (≈ 8.94 µM) | 16 µM (≈ 7.16 µg/mL) | 1 µg/mL (≈ 2.23 µM) | 32 µg/mL (≈ 71.5 µM) | 8 µg/mL (≈ 17.9 µM) | 16 µg/mL (≈ 35.8 µM) | 8 µg/mL (≈ 17.9 µM) | 2 µg/mL (≈ 4.47 µM) | Activity (Staphylococcus aureus [5]): 1.66 log10CFU/ml; Activity (Staphylococcus aureus [6]): 1.81 log10CFU/ml; Activity (Staphylococcus aureus [7]): 1.98 log10CFU/ml; Ratio (Staphylococcus aureus [8]): 4 - 8; Activity (Staphylococcus aureus [10]): 1.6 log10CFU/ml; Ratio (Staphylococcus aureus [11]): 4 - 8; Activity (Staphylococcus aureus [13]): 1.81 log10CFU/ml; Activity (Staphylococcus aureus [14]): 1.74 log10CFU/ml; Activity (Calf thymus DNA [16]): Active; MIC (Staphylococcus aureus [18]): 15 µM (≈ 6.71 µg/mL); inhibition (Calf thymus DNA [19]): Active; Activity (Calf thymus DNA [20]): Active; Activity (Staphylococcus aureus [21]): Active; Activity (Staphylococcus aureus [22]): 3.29 log10CFU/ml; MIC (Staphylococcus aureus [24]): 15 µM (≈ 6.71 µg/mL); Activity (Staphylococcus aureus [25]): 5.77 log10CFU/ml; Activity (Calf thymus DNA [26]): Dose-dependent effect; Activity (Staphylococcus aureus [27]): >3 log10CFU/ml; MIC (Staphylococcus aureus [28]): 13 µM (≈ 5.82 µg/mL) |
| CCOc1ccc2c(c1)sc1nc(-c3ccccc3)c(COCCCn3cncn3)n12 | – | – | > 512 µg/mL | > 512 µg/mL | – | 256 µg/mL (≈ 590 µM) | 16 µg/mL (≈ 36.9 µM) | 64 µg/mL (≈ 148 µM) | 128 µg/mL (≈ 295 µM) | – | > 512 µg/mL | > 512 µg/mL | > 512 µg/mL | – | > 512 µg/mL | > 512 µg/mL | > 512 µg/mL | 64 µg/mL (≈ 148 µM) | 64 µg/mL (≈ 148 µM) | > 512 µg/mL | – |
| c1ccc(-c2nc3sc4ccccc4n3c2COCCCCCCCCCCn2cncn2)cc1 | – | – | 16 µg/mL (≈ 32.8 µM) | 128 µg/mL (≈ 262 µM) | – | 64 µg/mL (≈ 131 µM) | 16 µg/mL (≈ 32.8 µM) | > 512 µg/mL | 16 µg/mL (≈ 32.8 µM) | – | 16 µg/mL (≈ 32.8 µM) | 16 µg/mL (≈ 32.8 µM) | 32 µg/mL (≈ 65.6 µM) | – | 16 µg/mL (≈ 32.8 µM) | 64 µg/mL (≈ 131 µM) | 32 µg/mL (≈ 65.6 µM) | 16 µg/mL (≈ 32.8 µM) | 16 µg/mL (≈ 32.8 µM) | 32 µg/mL (≈ 65.6 µM) | – |
| c1ccc(-c2nc3sc4ccccc4n3c2COCCCn2cncn2)cc1 | – | – | 8 µg/mL (≈ 20.5 µM) | 16 µg/mL (≈ 41.1 µM) | – | 16 µg/mL (≈ 41.1 µM) | 4 µg/mL (≈ 10.3 µM) | 64 µg/mL (≈ 164 µM) | 64 µg/mL (≈ 164 µM) | – | 16 µg/mL (≈ 41.1 µM) | 16 µg/mL (≈ 41.1 µM) | 16 µg/mL (≈ 41.1 µM) | – | 32 µg/mL (≈ 82.2 µM) | 64 µg/mL (≈ 164 µM) | 4 µg/mL (≈ 10.3 µM) | 32 µg/mL (≈ 82.2 µM) | 16 µg/mL (≈ 41.1 µM) | 4 µg/mL (≈ 10.3 µM) | – |
| O=C(N[C@H](CO)[C@H](O)c1ccc([N+](=O)[O-])cc1)C(Cl)Cl [CHLORAMPHENICOL] | 14 µM (≈ 4.52 µg/mL) | 14 µM (≈ 4.52 µg/mL) | 32 µg/mL (≈ 99 µM) | 32 µg/mL (≈ 99 µM) | 33 µM (≈ 10.7 µg/mL) | 32 µg/mL (≈ 99 µM) | – | – | – | 67 µM (≈ 21.6 µg/mL) | 16 µg/mL (≈ 49.5 µM) | 16 µg/mL (≈ 49.5 µM) | 32 µg/mL (≈ 99 µM) | 33 µM (≈ 10.7 µg/mL) | 32 µg/mL (≈ 99 µM) | 8 µg/mL (≈ 24.8 µM) | 16 µg/mL (≈ 49.5 µM) | – | – | 32 µg/mL (≈ 99 µM) | MIC (Staphylococcus aureus [18]): 67 µM (≈ 21.6 µg/mL); MIC (Staphylococcus aureus [24]): 33 µM (≈ 10.7 µg/mL); MIC (Staphylococcus aureus [28]): 14 µM (≈ 4.52 µg/mL) |
